Source: patent US20190358264A1, “METHODS OF TREATING DISEASES ASSOCIATED WITH ILC2 CELLS” (Limm Therapeutics, SA, priority 2016, published 2019)

Assays:
Ca^2+ influx in ILC2s = assay: Calcium signaling (Fluo-4) in purified ILC2s; assay type: cell-based, mouse; conditions: NmU23 added 60 seconds after baseline; small intestine ILC2s
Protocol: Purified ILC2s from the small intestine were cultured with IL-2 and IL-7 (10 ng/mL) and FBS deprived for 6 hours prior to calcium signaling experiments. ILC2s were stained with Fluo-4 Direct Calcium Assay Kit (Thermo Fisher Scientific) according to manufacturer's protocol. Calcium (Ca^2+) influx, represented by the Fluo-4 AM, was recorded over time on a BD Accuri C6 (BD Biosciences) flow cytometer as previously reported^36. The recombinant mouse NmU23 was added 60 seconds after ILC2 baseline recording. Data was represented by the mean values of Ca^2+ influx kinetics between the ILC2 baseline response and the peak of response after recombinant mouse NmU23 addition.

ILC2s [1] = assay: In vivo administration of NmU23, ILC2- and T cell-derived type 2 cytokines; set-up: species or system mouse; conditions: single dose NmU23 20 μg intraperitoneal, analyzed after 8 hours, vs PBS
Protocol: (§1) For in vitro experiments, purified lung and small intestine lamina propria ILC2s were FBS starved for 2 hours prior to stimulation and cultured in complete RPMI (supplemented with 10% foetal bovine serum (FBS), 1% hepes, sodium pyruvate, glutamine, streptomycin and penicillin) at 37° C. For mRNA analysis, ILC2s were stimulated overnight with recombinant mouse Neuromedin U 23 peptide (NmU23, 100 ng/mL; Phoenix pharmaceuticals). Both NmU23-stimulated and control ILC2s were cultured in the presence of IL-2 and IL-7 (10 ng/mL; Peprotech). ILC2s were lysed using RLT buffer (Qiagen). For cytokine protein analysis, ILC2s were incubated exclusively with brefeldin A (eBioscience) for 12 hours prior to intracellular staining. For in vivo experiments, B6 mice were injected intraperitoneal with NmU23 peptide (2 g/day) during Nippostrongylus brasiliensis infection or with a single dose of NmU23 (20 μg) and analyzed after 8 hours. Control mice were treated with PBS alone.
Intracellular staining was performed using IC fixation/permeabilization kit (eBioscience). Flow cytometry analysis and cell sorting were performed using BD LSRFORTESSA and BD FACSAria flow cytometers (BD Biosciences). Data analysis was done using FlowJo software (Tristar). Sorted populations were >95% pure. […]

ILC2s [2] = assay: In vitro activation of purified ILC2s, type 2 cytokine protein by intracellular staining; assay type: cell-based, mouse; conditions: purified ILC2s, Nmur1 competent vs deficient; NMUR1-dependent
Protocol: FIGS. 10a-10d: FIG. 10a, Ki67 expression in intestinal ILC2s after an overnight in vitro stimulation with NmU23 alone (100 ng/mL, Phoenix Pharmaceutical) or NmU23 together with the survival cytokines Interleukin (IL)-2 and/or IL-7 (10 ng/mL). FIG. 10b, Ki67 expression in intestine ILC2 after in vivo administration of NmU23 (4 g/day during 2 days). n=5. FIG. 10c, ILC2-derived type 2 cytokines (IL-5, IL-13 and Amphiregulin (Areg)) in sorted intestine ILC2 after an overnight stimulation with NmU23, mouse recombinant IL-25 or IL-33 (R&D) (10, 50 and 100 ng/mL). Negative control: unstimulated ILC2, Positive control: ILC2 activated with phorbol 12-myristate 13-acetate (PMA, 50 ng/ml) plus ionomycin (500 ng/ml). n=3. FIG. 10d, Dot plots representative of the cytokine production with increasing dose of NmU23, rIL-25 and rIL-33. *P<0.05; **P<0.01; ***P<0.001; ****P<0.0001; ns not significant.
as §1
Intracellular staining was performed using IC fixation/permeabilization kit (eBioscience). Flow cytometry analysis and cell sorting were performed using BD LSRFORTESSA and BD FACSAria flow cytometers (BD Biosciences). […]

Substance: recombinant mouse Neuromedin U 23 peptide (FKAEYQSPSVGQSKGYFLFRPRN; listed as Mus musculus) [NmU23, NMUR1 agonist neuropeptide, Phoenix pharmaceuticals]
- Ca^2+ influx in ILC2s (Fluo-4 AM intensity) (Ca^2+ influx in ILC2s): immediate and robust Ca^2+ influx
- T helper cell-derived type 2 cytokines after in vivo administration (ILC2s [1]): unperturbed
- type 2 cytokine production from ILC2s after in vivo administration (ILC2s [1]): immediate and selective type 2 cytokine production
- expression of the type 2 cytokine proteins IL-5 and IL-13 in ILC2s (ILC2s [2]): potent expression
